From patent US8546443B2, “Benzylic oxindole pyrimidines” (Boehringer Ingelheim International GmbH, priority 2010, dated 2013)

Target: T1, cytoplasmic kinase domain of human IGF-1R (IGF-1R-GST) (Homo sapiens, UniProt P08069)
T1 construct: cytoplasmic kinase domain of human IGF-1R (amino acids 964-1370); GST (glutathione-S-transferase); made in house; host or cells: High Five insect cells (Invitrogen)
Test: Insulin-like growth factor-1 receptor (IGF-1R) kinase assay (DELFIA)
Type: biochemical
Settings: IGF-1R-GST kinase activity, read-out: IGF1R IC50
Protocol: Insulin-Like Growth Factor-1 Receptor (IGF-1R)-Kinase Assay
The kinase activity is measured by DELFIA® assay (dissociation-enhanced lanthanide fluorescence immunoassay, Perkin Elmer). […] Enzyme activity is measured in the presence of substances and a control substance. Poly-glutamate-tyrosine peptide (pEY, Sigma Aldrich) and biotinylated pEY (bio-pEY) are used as reaction substrates.
After 40 min at RT the reactions are stopped with 50 μL of stop solution (250 mM EDTA, 20 mM HEPES pH 7.4). 90 μL from each reaction are transferred onto streptavidin-coated 96-well plates. After 120 min incubation at RT the plates are washed three times with 200 μL phosphate-buffered saline (PBS) per well. The plates are incubated for 60 min with 100 μL of europium-coupled antibody against phospho-tyrosine (diluted 1/2000 in Perkin Elmer DELFIA assay buffer) per well. The plates are washed three times with 200 μL per well of DELFIA washing buffer. 100 μL DELFIA Enhancement Solution (Perkin Elmer) is added to each well, and the plates are incubated for 10 min. The fluorescence signal is measured with a Wallac Victor TRF Reader. IC50 values for the inhibition of the IGF-1R-kinase activity are calculated using the programmes Fifty (Version 2) and GraphPad (Version 3.0).

T1 sequence (P08069 964-1367 limits assumed): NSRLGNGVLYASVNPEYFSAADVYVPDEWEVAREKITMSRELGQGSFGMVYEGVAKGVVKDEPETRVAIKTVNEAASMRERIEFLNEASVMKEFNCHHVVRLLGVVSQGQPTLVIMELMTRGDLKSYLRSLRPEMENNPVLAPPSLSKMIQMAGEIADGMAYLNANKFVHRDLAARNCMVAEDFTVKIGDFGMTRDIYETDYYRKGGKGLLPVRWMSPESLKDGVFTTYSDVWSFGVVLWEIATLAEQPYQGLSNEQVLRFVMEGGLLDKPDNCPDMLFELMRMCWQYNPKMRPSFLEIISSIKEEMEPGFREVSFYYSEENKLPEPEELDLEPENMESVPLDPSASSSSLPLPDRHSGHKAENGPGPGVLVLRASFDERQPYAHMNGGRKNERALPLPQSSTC

Compound | IC50 [nM]
Cc1cc(C2CCCNC2)ccc1Nc1ncc(Br)c(NCc2cccc3c2C(C)(C)C(=O)N3)n1 (racemic) [Example I-7] | 0.69
CC(=O)N1CCC(n2cc(Nc3ncc(Cl)c(NCc4cccc5c4C(C)(C)C(=O)N5)n3)cn2)CC1 [Example I-2] | 21
CN1CCN(c2ccc(Nc3ncc(Br)c(NCc4cccc5c4CC(=O)N5)n3)cc2)CC1 [Example I-8] | 28
COc1cc(N2CCNCC2)ccc1Nc1ncc(Cl)c(NCc2cccc3c2C(C)(C)C(=O)N3)n1 [Example I-11] | 2
COc1cc(N2CCC(N3CCN(S(C)(=O)=O)CC3)CC2)ccc1Nc1ncc(C(F)(F)F)c(NCc2cccc3c2C(C)(C)C(=O)N3)n1 [Example I-25] | 7
COc1cc(N2CCC(N3CCN(S(C)(=O)=O)CC3)CC2)ccc1Nc1ncc(C(F)(F)F)c(NCc2cccc3c2CC(=O)N3)n1 [Example I-26] | 9
COc1cc(N2CCNCC2)ccc1Nc1ncc(C(F)(F)F)c(NCc2cccc3c2C(C)(C)C(=O)N3C)n1 [Example I-30] | 3
CCOc1cc(N2CCNCC2)ccc1Nc1ncc(C(F)(F)F)c(NCc2cccc3c2C(C)(C)C(=O)N3)n1 [Example I-33] | 0.6
CN(C)CC(=O)N1CCC(c2ccc(Nc3ncc(Br)c(NCc4cccc5c4C(C)(C)C(=O)N5)n3)cc2)CC1 [Example I-42] | 0.79
CN(C)CC(=O)N1CCC(c2ccc(Nc3ncc(Cl)c(NCc4cccc5c4C(C)(C)C(=O)N5)n3)cc2)CC1 [Example I-43] | 7
CC(C)(C)OC(=O)N1CCC[C@H]1C(=O)N1CCC(c2ccc(Nc3ncc(Cl)c(NCc4cccc5c4C(C)(C)C(=O)N5)n3)cc2)CC1 [Example I-44] | 25
CC(C)(C)OC(=O)NCC(=O)N1CCC(c2ccc(Nc3ncc(Cl)c(NCc4cccc5c4C(C)(C)C(=O)N5)n3)cc2)CC1 [Example I-45] | 23
CN(CC(=O)N1CCC(c2ccc(Nc3ncc(Cl)c(NCc4cccc5c4C(C)(C)C(=O)N5)n3)cc2)CC1)C(=O)OC(C)(C)C [Example I-46] | 29
CC(C)(C)OC(=O)N1CC(C(=O)N2CCC(c3ccc(Nc4ncc(Cl)c(NCc5cccc6c5C(C)(C)C(=O)N6)n4)cc3)CC2)C1 [Example I-47] | 38
CC1(C)C(=O)Nc2cccc(CNc3nc(Nc4ccc(C5CCN(C(=O)[C@@H]6CCCN6)CC5)cc4)ncc3Cl)c21 [Example I-49] | 5
CC1(C)C(=O)Nc2cccc(CNc3nc(Nc4ccc(C5CCN(C(=O)CN)CC5)cc4)ncc3Cl)c21 [Example I-50] | 3
CNCC(=O)N1CCC(c2ccc(Nc3ncc(Cl)c(NCc4cccc5c4C(C)(C)C(=O)N5)n3)cc2)CC1 [Example I-51] | 2
CC1(C)C(=O)Nc2cccc(CNc3nc(Nc4ccc(C5CCN(C(=O)C6CNC6)CC5)cc4)ncc3Cl)c21 [Example I-52] | 7
COc1cc(C2CCN(C(=O)CN(C)C)CC2)ccc1Nc1ncc(Cl)c(NCc2cccc3c2C(C)(C)C(=O)N3)n1 [Example I-58] | 1
COc1cc(N2CCN(C(=O)CCN3CCCC3)CC2)ccc1Nc1ncc(Cl)c(NCc2cccc3c2C(C)(C)C(=O)N3)n1 [Example I-59] | 4

Compound | IC50 [nM]
COc1cc(N2CCN(C(=O)C3CCN(C)CC3)CC2)ccc1Nc1ncc(Cl)c(NCc2cccc3c2C(C)(C)C(=O)N3)n1 [Example I-60] | 3
COc1cc(N2CCN(C(=O)CN3CCN(C)CC3)CC2)ccc1Nc1ncc(Cl)c(NCc2cccc3c2C(C)(C)C(=O)N3)n1 [Example I-61] | 3
COc1cc(N2CCN(C(=O)CN(C)C)CC2)ccc1Nc1ncc(Cl)c(NCc2cccc3c2C(C)(C)C(=O)N3)n1 [Example I-62] | 1
COc1cc(N2CCN(C(=O)C3CCCN(C)C3)CC2)ccc1Nc1ncc(Cl)c(NCc2cccc3c2C(C)(C)C(=O)N3)n1 (stereo not shown) [Example I-63] | 2
COc1cc(N2CCN(C(=O)CCCN(C)C)CC2)ccc1Nc1ncc(Cl)c(NCc2cccc3c2C(C)(C)C(=O)N3)n1 [Example I-64] | 2
COc1cc(N2CCN(C(C)=O)CC2)ccc1Nc1ncc(C(F)(F)F)c(NCc2cccc3c2CC(=O)N3)n1 [Example I-70] | 21
COc1cc(N2CCN(C(=O)N(C)C)CC2)ccc1Nc1ncc(C(F)(F)F)c(NCc2cccc3c2CC(=O)N3)n1 [Example I-71] | 50
CCOC(=O)N1CCN(c2ccc(Nc3ncc(C(F)(F)F)c(NCc4cccc5c4CC(=O)N5)n3)c(OC)c2)CC1 [Example I-72] | 72
COC(=O)N1CCN(c2ccc(Nc3ncc(C(F)(F)F)c(NCc4cccc5c4C(C)(C)C(=O)N5)n3)c(OC)c2)C[C@H]1C [Example I-73] | 29
CN(C)CCCC(=O)N1CCC(c2ccc(Nc3ncc(C(F)(F)F)c(NCc4cccc5c4C(C)(C)C(=O)N5)n3)cc2)CC1 [Example I-74] | 2
CN(C)CC(=O)N1CCC(c2ccc(Nc3ncc(C(F)(F)F)c(NCc4cccc5c4C(C)(C)C(=O)N5)n3)cc2)CC1 [Example I-75] | 2
COc1cc(N2CCN(C(=O)N(C)C)CC2)ccc1Nc1ncc(C(F)(F)F)c(NCc2cccc3c2C(C)(C)C(=O)N3)n1 [Example I-76] | 11
COc1cc(N2CCN(C(C)=O)CC2)ccc1Nc1ncc(C(F)(F)F)c(NCc2cccc3c2C(C)(C)C(=O)N3)n1 [Example I-77] | 3
CCOc1cc(N2CCN(C(C)=O)CC2)ccc1Nc1ncc(C(F)(F)F)c(NCc2cccc3c2CC(=O)N3)n1 [Example I-78] | 30
CCOc1cc(N2CCN(C(C)=O)CC2)ccc1Nc1ncc(C(F)(F)F)c(NCc2cccc3c2C(C)(C)C(=O)N3)n1 [Example I-79] | 4
COc1cc(N2CC3CC2CN3C(C)=O)ccc1Nc1ncc(C(F)(F)F)c(NCc2cccc3c2C(C)(C)C(=O)N3)n1 (stereo not shown) [Example I-80] | 47
COc1cc(N2CC3CC2CN3C(=O)N(C)C)ccc1Nc1ncc(C(F)(F)F)c(NCc2cccc3c2C(C)(C)C(=O)N3)n1 (stereo not shown) [Example I-81] | 81
COC(=O)N1CC2CC1CN2c1ccc(Nc2ncc(C(F)(F)F)c(NCc3cccc4c3C(C)(C)C(=O)N4)n2)c(OC)c1 (stereo not shown) [Example I-82] | 65
COCC(=O)N1CCN(c2ccc(Nc3ncc(C(F)(F)F)c(NCc4cccc5c4C(C)(C)C(=O)N5)n3)c(OC)c2)CC1 [Example I-83] | 5
COc1cc(N2CCN(C(=O)CN(C)C)CC2)ccc1Nc1ncc(C(F)(F)F)c(NCc2cccc3c2C(C)(C)C(=O)N3)n1 [Example I-84] | 0.3

Compound | IC50 [nM]
COCCC(=O)N1CCN(c2ccc(Nc3ncc(C(F)(F)F)c(NCc4cccc5c4C(C)(C)C(=O)N5)n3)c(OC)c2)CC1 [Example I-85] | 9
COc1cc(N2CCN(C(=O)CCCN(C)C)CC2)ccc1Nc1ncc(C(F)(F)F)c(NCc2cccc3c2C(C)(C)C(=O)N3)n1 [Example I-86] | 1
COc1cc(N2CCN(C(=O)C3CCN(C)CC3)CC2)ccc1Nc1ncc(C(F)(F)F)c(NCc2cccc3c2C(C)(C)C(=O)N3)n1 [Example I-87] | 3
COc1cc(N2CCN(C(=O)CN3CCN(C)CC3)CC2)ccc1Nc1ncc(C(F)(F)F)c(NCc2cccc3c2C(C)(C)C(=O)N3)n1 [Example I-88] | 9
COc1cc(N2CCN(C(=O)CCN(C)C)CC2)ccc1Nc1ncc(C(F)(F)F)c(NCc2cccc3c2C(C)(C)C(=O)N3)n1 [Example I-89] | 0.18
COc1cc(N2CCN(C(=O)C3CCCN(C)C3)CC2)ccc1Nc1ncc(C(F)(F)F)c(NCc2cccc3c2C(C)(C)C(=O)N3)n1 (stereo not shown) [Example I-90] | 0.32
COc1cc(N2CCN(C(=O)CN(C)C)CC2)ccc1Nc1ncc(C(F)(F)F)c(NCc2cccc3c2CC(=O)N3)n1 [Example I-91] | 6
COc1cc(N2CCN(C(=O)CCCN(C)C)CC2)ccc1Nc1ncc(C(F)(F)F)c(NCc2cccc3c2CC(=O)N3)n1 [Example I-92] | 9
CC1(C)C(=O)Nc2cccc(CNc3nc(Nc4ccc(C5CCN(C6COC6)CC5)cc4)ncc3Cl)c21 [Example I-93] | 5
CN1CCN(c2ccc(Nc3ncc(Cl)c(NCc4cccc5c4C(C)(C)C(=O)N5)n3)cc2)CC1 [Example I-94] | 14
COc1cc(N2CCN(C3CCOCC3)CC2)ccc1Nc1ncc(Cl)c(NCc2cccc3c2C(C)(C)C(=O)N3)n1 [Example I-95] | 16
COc1cc(N2CCN(C3CCC3)CC2)ccc1Nc1ncc(Cl)c(NCc2cccc3c2C(C)(C)C(=O)N3)n1 [Example I-96] | 3
COc1cc(N2CCN(C(C)C)CC2)ccc1Nc1ncc(Cl)c(NCc2cccc3c2C(C)(C)C(=O)N3)n1 [Example I-98] | 2
CCN1CCN(c2ccc(Nc3ncc(Cl)c(NCc4cccc5c4C(C)(C)C(=O)N5)n3)c(OC)c2)CC1 [Example I-99] | 2
COc1cc(C2CCN(C)CC2)ccc1Nc1ncc(Cl)c(NCc2cccc3c2C(C)(C)C(=O)N3)n1 [Example I-100] | 2
COc1cc(N2CCN(CC3CC3)CC2)ccc1Nc1ncc(Cl)c(NCc2cccc3c2C(C)(C)C(=O)N3)n1 [Example I-101] | 2
COc1cc(N2CCN(C3CCOCC3)[C@H](C)C2)ccc1Nc1ncc(C(F)(F)F)c(NCc2cccc3c2C(C)(C)C(=O)N3)n1 [Example I-105] | 2
COc1cc(N2CCN(C(C)C)[C@H](C)C2)ccc1Nc1ncc(C(F)(F)F)c(NCc2cccc3c2C(C)(C)C(=O)N3)n1 [Example I-106] | 0.08
